This assay deals with BDF1 mice, B16 melanoma ip, median survival T/C. The experiment in a line: NCI In Vivo Anticancer Drug Screen. Data for tumor model B16 Melanoma (intraperitoneal) in B6D2F1 (BDF1) mice. The conditions noted are these: endpoint: median survival time, higher = longer survival. An outline of the steps:
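Transplantable tumor model; survival or tumor size measured; reported as T/C, treated over vehicle control.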

The mark [1] stands for this setting: dose: 0.78 mg/kg/injection, schedule: Q01DX009 (ip), vehicle: saline.
[2] abbreviates: dose: 3.0 mg/kg/injection, schedule: Q01DX009 (ip), vehicle: saline.
Setting [3] is: dose: 6.25 mg/kg/injection, schedule: Q01DX009 (ip), vehicle: saline.
[4] abbreviates: dose: 100.0 mg/kg/injection, schedule: Q04DX003 (ip), vehicle: Klucel (hydroxypropylcellulose) (HPC).
Where [5] appears, read: dose: 200.0 mg/kg/injection, schedule: Q04DX003 (ip), vehicle: Klucel (hydroxypropylcellulose) (HPC).
The mark [6] stands for this setting: dose: 400.0 mg/kg/injection, schedule: Q04DX003 (ip), vehicle: Klucel (hydroxypropylcellulose) (HPC).
Setting [7] is: dose: 12.5 mg/kg/injection, schedule: Q01DX009 (ip), vehicle: saline.
Setting [8] is: dose: 25.0 mg/kg/injection, schedule: Q01DX009 (ip), vehicle: saline.
Where [9] appears, read: dose: 50.0 mg/kg/injection, schedule: Q01DX009 (ip), vehicle: saline.
[10] abbreviates: dose: 100.0 mg/kg/injection, schedule: Q01DX009 (ip), vehicle: saline.
Where [11] appears, read: dose: 100.0 mg/kg/injection, schedule: Q01DX009 (ip), vehicle: saline with Tween-80.
Where [12] appears, read: dose: 100.0 mg/kg/injection, schedule: Q04DX003 (ip), vehicle: saline with Tween-80.
Where [13] appears, read: dose: 1.56 mg/kg/injection, schedule: Q01DX009 (ip), vehicle: saline.
Where [14] appears, read: dose: 3.12 mg/kg/injection, schedule: Q01DX009 (ip), vehicle: saline.
Where [15] appears, read: dose: 50.0 mg/kg/injection, schedule: Q01DX009 (ip), vehicle: saline with Tween-80.
Where [16] appears, read: dose: 200.0 mg/kg/injection, schedule: Q01DX009 (ip), vehicle: saline with Tween-80.
Where [17] appears, read: dose: 75.0 mg/kg/injection, schedule: Q01DX009 (ip), vehicle: Klucel (hydroxypropylcellulose) (HPC).
[18] abbreviates: dose: 150.0 mg/kg/injection, schedule: Q01DX009 (ip), vehicle: Klucel (hydroxypropylcellulose) (HPC).

Where “and” joins values, the source holds several entries; their conditions need not be identical. Identical values can stand only once. Toxic doses and inconclusive results are not listed. Square brackets hold non-standard residues; d marks the D form. Peptide text beside a SMILES is read from it. ξ: configuration not given here. Ac5c = NC1(C(=O)O)CCCC1; ξS = NC(CO)C(=O)O

The values below come from PubChem BioAssay AID192 (DTP/NCI, 2004).

As to `CCC1(O)CC2CN(CCc3c([nH]c4ccccc34)C(C(=O)OC)(c3cc4c(cc3OC)N(C)C3C(O)(C(=O)NCCSSCCNC(=O)C5(O)C(O)C6(CC)C=CCN7CCC8(c9cc(C%10(C(=O)OC)CC%11CN(CCc%12c%10[nH]c%10ccccc%12%10)CC(O)(CC)C%11)c(OC)cc9N(C)C58)C76)C(O)C5(CC)C=CCN6CCC43C65)C2)C1` (centres undefined), the T/C was 122 % of control (dose: 0.13 mg/kg/injection, schedule: Q04DX003 (ip), vehicle: saline); 184 % of control (dose: 0.64 mg/kg/injection, schedule: Q01DX009 (ip), vehicle: saline); 151 % of control (dose: 1.0 mg/kg/injection, schedule: Q04DX003 (ip), vehicle: saline); 189 % of control (dose: 1.08 mg/kg/injection, schedule: Q01DX009 (ip), vehicle: saline); 158 % of control and 181 % of control (dose: 648.0 micrograms/kg/injection, schedule: Q04DX003 (ip), vehicle: saline); 183 % of control and 203 % of control (dose: 1080.0 micrograms/kg/injection, schedule: Q04DX003 (ip), vehicle: saline). Besides, for the setting “dose: 1800.0 micrograms/kg/injection, schedule: Q04DX003 (ip), vehicle: saline”, the T/C was 184 % of control and 203 % of control.
Turning to `O=C1NC2(CCCCC2)C(=O)N1CCN(CCCl)CCCl`, the T/C by setting is: (dose: 0.75 mg/kg/injection, schedule: Q01DX009 (ip), vehicle: saline) 105 % of control and 107 % of control; under setting [1], 95 % of control and 109 % of control and 263 % of control; under setting [2], 107 % of control; (dose: 6.0 mg/kg/injection, schedule: Q01DX009 (ip), vehicle: saline with Tween-80) 168 % of control and 191 % of control; under setting [3], 152 % of control and 176 % of control.
`O=C1Cc2cccc3c2C(C1)CN3C(=O)c1ccccc1` (centres undefined): the T/C is 101 % of control under setting [4], 106 % of control under setting [5] and 110 % of control under setting [6].
For the compound `Cc1ccccc1N1C(=O)CSC1=S`, the T/C (dose: 12.5 mg/kg/injection, schedule: Q01DX009 (ip), vehicle: Klucel (hydroxypropylcellulose) (HPC)) is 90 % of control and the T/C (dose: 25.0 mg/kg/injection, schedule: Q01DX009 (ip), vehicle: Klucel (hydroxypropylcellulose) (HPC)) is 93 % of control.
Take `CCN(CC)CCOC(=O)N(c1ccccc1)c1ccccc1`: the T/C reads like this: under setting [3], 104 % of control; under setting [7], 100 % of control; under setting [8], 104 % of control; under setting [9], 95 % of control; under setting [10], 86 % of control.
`O=C(OCc1ccccc1)C(=O)OCc1ccccc1`: the T/C was 121 % of control under setting [11]; 100 % of control under setting [12]; 107 % of control (dose: 200.0 mg/kg/injection, schedule: Q04DX003 (ip), vehicle: saline with Tween-80).
With `ClCC[Se](Cl)(Cl)c1ccccc1`, the T/C was 96 % of control under setting [1], 105 % of control under setting [13] and 113 % of control under setting [14].
In the case of `Cc1ccc(NC(=O)Nc2ccc(C)c(NC(=O)Nc3ccc(C)cc3C)c2)c(C)c1`, the T/C (dose: 100.0 mg/kg/injection, schedule: Q01DX009 (ip), vehicle: Klucel (hydroxypropylcellulose) (HPC)) was 91 % of control and the T/C (dose: 200.0 mg/kg/injection, schedule: Q01DX009 (ip), vehicle: Klucel (hydroxypropylcellulose) (HPC)) is 96 % of control.
On to `CN(C)N=Nc1cccc(C(N)=O)c1`, for which the T/C by setting is: (dose: 5.0 mg/kg/injection, schedule: Q01DX009 (ip), vehicle: Klucel (hydroxypropylcellulose) (HPC)) 103 % of control and 121 % of control; (dose: 10.0 mg/kg/injection, schedule: Q01DX009 (ip), vehicle: Klucel (hydroxypropylcellulose) (HPC)) 106 % of control and 113 % of control; (dose: 20.0 mg/kg/injection, schedule: Q01DX009 (ip), vehicle: Klucel (hydroxypropylcellulose) (HPC)) 111 % of control and 123 % of control; (dose: 80.0 mg/kg/injection, schedule: Q01DX009 (ip), vehicle: Klucel (hydroxypropylcellulose) (HPC)) 101 % of control and 118 % of control; under setting [10], 46 % of control; (dose: 160.0 mg/kg/injection, schedule: Q01DX009 (ip), vehicle: Klucel (hydroxypropylcellulose) (HPC)) 113 % of control.
With `CN1C2CCC1CC(OC(c1ccccc1)c1ccccc1)C2` (centres undefined), the T/C under setting [13] was 102 % of control; the T/C under setting [14] is 107 % of control; the T/C under setting [3] was 107 % of control; the T/C under setting [7] was 110 % of control; the T/C under setting [8] was 107 % of control.
For `CCCCCCCCCC(=O)CCCC`, the T/C (dose: 100.0 mg/kg/injection, schedule: Q01DX009 (ip), vehicle: other) was 94 % of control and the T/C (dose: 200.0 mg/kg/injection, schedule: Q01DX009 (ip), vehicle: other) was 92 % of control.
Turning to `Cc1ccc2nc(-c3ccc(N=Cc4ccccc4O)cc3)sc2c1`, the T/C is 87 % of control (dose: 25.0 mg/kg/injection, schedule: Q01DX009 (ip), vehicle: olive oil, sesame oil, peanut oil) and 86 % of control (dose: 50.0 mg/kg/injection, schedule: Q01DX009 (ip), vehicle: olive oil, sesame oil, peanut oil).
`NC(CO)C(=O)NC1(C(=O)O)CCCC1` (centres undefined) (H-[ξS]-[Ac5c]-OH): the T/C by setting is: under setting [12], 123 % of control; (dose: 133.0 mg/kg/injection, schedule: Q04DX003 (ip), vehicle: saline with Tween-80) 122 % of control; (dose: 300.0 mg/kg/injection, schedule: Q04DX003 (ip), vehicle: saline with Tween-80) 117 % of control; (dose: 400.0 mg/kg/injection, schedule: Q04DX003 (ip), vehicle: saline with Tween-80) 100 % of control.
As for `CSc1nc(NC(C)C)nc(NC(C)C)n1`, the T/C by setting is: (dose: 25.0 mg/kg/injection, schedule: Q01DX009 (ip), vehicle: saline with Tween-80) 102 % of control; under setting [15], 92 % of control; under setting [11], 102 % of control.
Regarding `COC1/C=C/O[C@@]2(C)Oc3c(C)c(O)c4c(O)c(cc(O)c4c3C2=O)NC(=O)/C(C)=C\C=C\[C@H](C)C(O)[C@@H](C)[C@@H](O)[C@@H](C)[C@H](OC(C)=O)[C@@H]1C` (some centres undefined), the T/C under setting [15] is 89 % of control, the T/C under setting [11] was 100 % of control and the T/C under setting [16] is 95 % of control.
With `CCOC(OCC)C(=O)NNC(C)C`, the T/C by setting is: under setting [3], 105 % of control; under setting [7], 111 % of control; under setting [9], 100 % of control.
For the compound `Nc1ccc(F)cc1[N+](=O)[O-]`, the T/C under setting [17] is 122 % of control; the T/C under setting [18] is 105 % of control; the T/C (dose: 300.0 mg/kg/injection, schedule: Q01DX009 (ip), vehicle: Klucel (hydroxypropylcellulose) (HPC)) was 102 % of control.
`C=CCCCC[P+](c1ccccc1)(c1ccccc1)c1ccccc1`: the T/C reads like this: (dose: 1.5 mg/kg/injection, schedule: Q01DX009 (ip), vehicle: saline) 102 % of control; under setting [2], 92 % of control.
`CC(Oc1ccccc1)C(=O)c1ccccc1` (centres undefined): the T/C is 90 % of control under setting [11]; 90 % of control under setting [16]; 93 % of control (dose: 400.0 mg/kg/injection, schedule: Q01DX009 (ip), vehicle: saline with Tween-80).
`CCCCCCCCC(=O)N(C)OC`: the T/C was 107 % of control (dose: 3.13 mg/kg/injection, schedule: Q04DX003 (ip), vehicle: saline); 121 % of control (dose: 6.25 mg/kg/injection, schedule: Q04DX003 (ip), vehicle: saline); 105 % of control (dose: 12.5 mg/kg/injection, schedule: Q04DX003 (ip), vehicle: saline).
In the case of `CCC(C)Sc1nc(N)nc2c1ncn2C1OC(CO)C(O)C1O` (centres undefined), the T/C is 113 % of control (dose: 37.5 mg/kg/injection, schedule: Q01DX009 (ip), vehicle: Klucel (hydroxypropylcellulose) (HPC)); 99 % of control under setting [17]; 89 % of control under setting [18].
Consider `CCOC(=O)Nc1ccc(OC)cc1`, for which the T/C is 95 % of control under setting [4], 100 % of control under setting [5] and 97 % of control under setting [6].
`CCCCNC(C)(C)COC(=O)/C=C/c1ccc(OCCCC)cc1`: the T/C is, setting by setting: (dose: 12.5 mg/kg/injection, schedule: Q01DX009 (ip), vehicle: saline sonified) 97 % of control; (dose: 25.0 mg/kg/injection, schedule: Q01DX009 (ip), vehicle: saline sonified) 97 % of control; (dose: 50.0 mg/kg/injection, schedule: Q01DX009 (ip), vehicle: saline sonified) 104 % of control; (dose: 100.0 mg/kg/injection, schedule: Q01DX009 (ip), vehicle: saline sonified) 93 % of control.
